Reference: the supplement of paper PMC5579334

Legend:
HS-PSS [1] = assay: drug sensitivity score (DSS, CellTox-Green cytotoxicity, 72 h) (DSS (dimensionless)); higher = more cytotoxic; extreme values may be limits of the assay
Summary of the method: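 For 72 h at 37 °C, MPNST cell lines and primary human Schwann cells were exposed in 384-well plates to five 10-fold compound dilutions. CellTox-Green, added before seeding at a final 1:1000 dilution, gave fluorescence from DNA released by disrupted cells. Signals were scaled to vehicle and positive-control wells, cultures failing plate quality control were left out, and four-parameter logistic fits were applied. Relative IC50 and drug sensitivity score were derived from the fits, with IC50 censored at the top concentration.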

HS-Sch-2 [2] = assay: % inhibition of CellTiter-Glo viability at highest tested concentration (72 h), relative to DMSO and benzethonium chloride controls; higher = more inhibition
Summary of the method: (§1)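 After seeding 750–1000 cells per well of MPNST cell lines or primary human Schwann cells into 384-well plates preprinted with each compound at five concentrations in 10-fold steps, plates were kept 72 h at 37 °C, 5% CO2. Viability was read as CellTiter-Glo ATP luminescence relative to vehicle and positive-control wells, with duplicates averaged where present. The data were fitted with four-parameter logistic models. Drug sensitivity score and relative IC50, censored at the top concentration, derive from the fits, and percent inhibition refers to the top concentration.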

YST-1 [3] = assay: as above
Summary of the method: as §1

HS-PSS [4] = assay: as above
Summary of the method: as §1

HS-Sch-2 [5] = assay: drug sensitivity score (DSS, CellTiter-Glo viability, 72 h) (DSS (dimensionless)); higher = more sensitive; extreme values may be limits of the assay
Summary of the method: as §1

YST-1 [6] = assay: as above
Summary of the method: as §1

HS-PSS [7] = assay: as above
Summary of the method: as §1

SMILES: CN(C)c1cc2c(cc1Sc1nc3c(N)nccc3n1CCNCC(C)(C)C)OCO2 [CUDC-305] (max concentration tested 10000 nM)
- drug sensitivity score (HS-PSS [1]): 4.43
- % inhibition (HS-Sch-2 [2]): 101%
- % inhibition (YST-1 [3]): 81.7%
- % inhibition (HS-PSS [4]): 84.7%
- drug sensitivity score (HS-Sch-2 [5]): 19.6
- drug sensitivity score (YST-1 [6]): 12.6
- drug sensitivity score (HS-PSS [7]): 13.1

SMILES: Cc1ccccc1C(C(=O)NC1CCCCC1)N(C(=O)Cn1ccnc1C)c1cccc(F)c1 (stereo unspecified) [AGI-5198] (max concentration tested 10000 nM)
- drug sensitivity score (HS-PSS [1]): 0
- % inhibition (HS-Sch-2 [2]): 4.74%
- % inhibition (YST-1 [3]): 1.43%
- % inhibition (HS-PSS [4]): 11.5%
- drug sensitivity score (HS-Sch-2 [5]): 0.6
- drug sensitivity score (YST-1 [6]): 0
- drug sensitivity score (HS-PSS [7]): 0.2

SMILES: CN(C)Cc1c(C(=O)NCCOc2ccc(C(=O)NO)cc2)oc2ccccc12 [Abexinostat] (max concentration tested 10000 nM)
- drug sensitivity score (HS-PSS [1]): 7.74
- % inhibition (HS-Sch-2 [2]): 101%
- % inhibition (YST-1 [3]): 101%
- % inhibition (HS-PSS [4]): 96.2%
- drug sensitivity score (HS-Sch-2 [5]): 20.5
- drug sensitivity score (YST-1 [6]): 24.9
- drug sensitivity score (HS-PSS [7]): 16.5

SMILES: Cn1ncc(Cl)c1-c1cc(C(=O)N[C@H](CN)Cc2ccc(F)c(F)c2)oc1Cl [Uprosertib] (max concentration tested 10000 nM)
- drug sensitivity score (HS-PSS [1]): 0
- % inhibition (HS-Sch-2 [2]): 6.41%
- % inhibition (YST-1 [3]): 21.9%
- % inhibition (HS-PSS [4]): 9.97%
- drug sensitivity score (HS-Sch-2 [5]): 0
- drug sensitivity score (YST-1 [6]): 3.04
- drug sensitivity score (HS-PSS [7]): 0

SMILES: CC(C)[C@@H](CS(=O)(=O)C(C)C)N1C(=O)[C@@](C)(CC(=O)O)C[C@H](c2cccc(Cl)c2)[C@H]1c1ccc(Cl)cc1 [AMG-232] (max concentration tested 1000 nM)
- drug sensitivity score (HS-PSS [1]): 0
- % inhibition (HS-Sch-2 [2]): -6.16%
- % inhibition (YST-1 [3]): 96.6%
- % inhibition (HS-PSS [4]): 22.4%
- drug sensitivity score (HS-Sch-2 [5]): 0
- drug sensitivity score (YST-1 [6]): 8.01
- drug sensitivity score (HS-PSS [7]): 0.61

SMILES: C[C@@H]1COC(Nc2ccc3ncnc(Nc4ccc(OCc5nccs5)c(Cl)c4)c3c2)=N1 [Varlitinib] (max concentration tested 10000 nM)
- drug sensitivity score (HS-PSS [1]): 0
- % inhibition (HS-Sch-2 [2]): 30.6%
- % inhibition (YST-1 [3]): 27.7%
- % inhibition (HS-PSS [4]): 42%
- drug sensitivity score (HS-Sch-2 [5]): 2.41
- drug sensitivity score (YST-1 [6]): 3.23
- drug sensitivity score (HS-PSS [7]): 5.07

SMILES: CCS(=O)(=O)N1CCN(c2ccc(Nc3ncc(C(N)=O)c(NC4CC4)n3)cc2)CC1 [Cerdulatinib] (max concentration tested 10000 nM)
- drug sensitivity score (HS-PSS [1]): 0
- % inhibition (HS-Sch-2 [2]): 58.9%
- % inhibition (YST-1 [3]): -4.68%
- % inhibition (HS-PSS [4]): 40.3%
- drug sensitivity score (HS-Sch-2 [5]): 4.87
- drug sensitivity score (YST-1 [6]): 0
- drug sensitivity score (HS-PSS [7]): 3.47

SMILES: CCc1nc(-c2cccc(C)c2)c(-c2ccnc(NC(=O)c3ccccc3)c2)s1 [TAK-715] (max concentration tested 10000 nM)
- drug sensitivity score (HS-PSS [1]): 0
- % inhibition (HS-Sch-2 [2]): 27.9%
- % inhibition (YST-1 [3]): 24%
- % inhibition (HS-PSS [4]): 19.3%
- drug sensitivity score (HS-Sch-2 [5]): 2.55
- drug sensitivity score (YST-1 [6]): 2.91
- drug sensitivity score (HS-PSS [7]): 0.81

SMILES: CNc1nc(-c2ccc3c(N)n[nH]c3c2)cc(N2C[C@@H](C(=O)NC3CCCCC3)CC[C@H]2C)n1 (max concentration tested 10000 nM)
- drug sensitivity score (HS-PSS [1]): 0
- % inhibition (HS-Sch-2 [2]): 14.3%
- % inhibition (YST-1 [3]): 54%
- % inhibition (HS-PSS [4]): 27.7%
- drug sensitivity score (HS-Sch-2 [5]): 0.1
- drug sensitivity score (YST-1 [6]): 7.15
- drug sensitivity score (HS-PSS [7]): 1.2

SMILES: O=C(NOC[C@H](O)CO)c1ccc(F)c(F)c1Nc1ccc(I)cc1F (max concentration tested 1000 nM)
- drug sensitivity score (HS-PSS [1]): 0
- % inhibition (HS-Sch-2 [2]): 15%
- % inhibition (YST-1 [3]): -8.18%
- % inhibition (HS-PSS [4]): 12.4%
- drug sensitivity score (HS-Sch-2 [5]): 0.69
- drug sensitivity score (YST-1 [6]): 0
- drug sensitivity score (HS-PSS [7]): 0.01

SMILES: O=C(Nc1cccc(Cl)c1)Nc1ncc(CCNc2ncnc3ccsc23)s1 [SNS-314] (max concentration tested 1000 nM)
- drug sensitivity score (HS-PSS [1]): 0
- % inhibition (HS-Sch-2 [2]): 53.3%
- % inhibition (YST-1 [3]): 36.5%
- % inhibition (HS-PSS [4]): 23.8%
- drug sensitivity score (HS-Sch-2 [5]): 4.4
- drug sensitivity score (YST-1 [6]): 8.57
- drug sensitivity score (HS-PSS [7]): 2.01

SMILES: CC(=O)NCC(=O)N1[C@@H]2CC[C@H]1c1ccc(Nc3ncc(C(F)(F)F)c(NC4CCC4)n3)cc12 (max concentration tested 10000 nM)
- drug sensitivity score (HS-PSS [1]): 1.86
- % inhibition (HS-Sch-2 [2]): 99.3%
- % inhibition (YST-1 [3]): 82.8%
- % inhibition (HS-PSS [4]): 87.8%
- drug sensitivity score (HS-Sch-2 [5]): 11.5
- drug sensitivity score (YST-1 [6]): 10.5
- drug sensitivity score (HS-PSS [7]): 9.91

SMILES: O=C(Nc1cc(Cl)cc2c1[nH]c1cnccc12)c1cccnc1 [PS-1145] (max concentration tested 25000 nM)
- drug sensitivity score (HS-PSS [1]): 0
- % inhibition (HS-Sch-2 [2]): 5.78%
- % inhibition (YST-1 [3]): 16.9%
- % inhibition (HS-PSS [4]): 13.7%
- drug sensitivity score (HS-Sch-2 [5]): 0
- drug sensitivity score (YST-1 [6]): 3.62
- drug sensitivity score (HS-PSS [7]): 0.49

SMILES: Nc1cc(F)ccc1NC(=O)/C=C/c1cnn(C/C=C/c2ccccc2)c1 [RGFP966] (max concentration tested 10000 nM)
- drug sensitivity score (HS-PSS [1]): 0
- % inhibition (HS-Sch-2 [2]): 52.7%
- % inhibition (YST-1 [3]): 55.7%
- % inhibition (HS-PSS [4]): 33.2%
- drug sensitivity score (HS-Sch-2 [5]): 4.52
- drug sensitivity score (YST-1 [6]): 5.15
- drug sensitivity score (HS-PSS [7]): 4.21

SMILES: N#Cc1c(Oc2ccc(F)c(NC(=O)Cc3cccc(C(F)(F)F)c3)c2)ccc2nc(NC(=O)C3CC3)sc12 [TAK-632] (max concentration tested 10000 nM)
- drug sensitivity score (HS-PSS [1]): 0
- % inhibition (HS-Sch-2 [2]): 32.1%
- % inhibition (YST-1 [3]): 10.2%
- % inhibition (HS-PSS [4]): 37.5%
- drug sensitivity score (HS-Sch-2 [5]): 1.14
- drug sensitivity score (YST-1 [6]): 0
- drug sensitivity score (HS-PSS [7]): 1.38

SMILES: NC(=O)c1cccc(-c2cccc(OC(=O)NC3CCCCC3)c2)c1 [URB597] (max concentration tested 1000 nM)
- drug sensitivity score (HS-PSS [1]): 0
- % inhibition (HS-Sch-2 [2]): 0.43%
- % inhibition (YST-1 [3]): -6.54%
- % inhibition (HS-PSS [4]): 18.8%
- drug sensitivity score (HS-Sch-2 [5]): 0
- drug sensitivity score (YST-1 [6]): 0
- drug sensitivity score (HS-PSS [7]): 1.09

SMILES: c1ccc(Cn2c(-c3ccc(OC[C@H](C4CCNCC4)n4c(-c5ccccc5)nc5ccccc54)cc3)nc3ccccc32)cc1 [deltarasin] (max concentration tested 10000 nM)
- drug sensitivity score (HS-PSS [1]): 5.68
- % inhibition (HS-Sch-2 [2]): 101%
- % inhibition (YST-1 [3]): 100%
- % inhibition (HS-PSS [4]): 101%
- drug sensitivity score (HS-Sch-2 [5]): 5.77
- drug sensitivity score (YST-1 [6]): 5.29
- drug sensitivity score (HS-PSS [7]): 6.88

SMILES: CN(C)Cc1ccc(S(=O)(=O)n2ccc(/C=C/C(=O)NO)c2)cc1 [Resminostat] (max concentration tested 10000 nM)
- drug sensitivity score (HS-PSS [1]): 2.12
- % inhibition (HS-Sch-2 [2]): 100%
- % inhibition (YST-1 [3]): 101%
- % inhibition (HS-PSS [4]): 84.1%
- drug sensitivity score (HS-Sch-2 [5]): 7.57
- drug sensitivity score (YST-1 [6]): 13.8
- drug sensitivity score (HS-PSS [7]): 6.36
